Data taken from patent publication US11639364B2, “Potent sialyltransferase inhibitors” (STICHTING RADBOUD UNIVERSITEIT, priority 2018, dated 2023).
Read-outs that look alike come from different tables or passages of the source.

How the values were obtained:
B16-F10 cells [1] = test: Inhibition of cell surface sialylation, lectin staining and flow cytometry, B16-F10 cells; assay type: cell-based, Mouse; settings: three days
Experimental: (§1) Mouse B16-F10 melanoma cells (ATCC CRL-6475) were cultured in Minimum Essential Medium (MEM) (Gibco, Invitrogen, Carlsbad, Calif.) containing 5% fetal bovine serum (FBS) (Greiner Bio-one, Frickenhausen, Germany), 1% MEM non-essential amino acids (Gibco), 0.15% sodium bicarbonate (Gibco), 1 mM sodium pyruvate (Gibco), 1.5% MEM vitamins (Gibco), 1% antibiotic-antimycotic solution (50 U/ml penicillin, 50 μg/ml streptomycin and 125 ng/ml amphotericin B) (Gibco). The murine 9464D neuroblastoma cell line was cultured in Dulbecco's Modified Eagle's Medium (DMEM, Glutamax, Gibco) with 10% FBS, 1% non-essential amino acids, 50 μM 2-mercaptoethanol (Sigma-Aldrich) and 1% antibiotic-antimycotic solution (Kroesen et al., 2014, DOI: 10.1002/ijc.28463, Stauffer et al., 2012, DOI: 10.3109/07357907.2012.664670). The murine EL4 T lymphocyte cell line (ATCC TIB-39) was cultured in Iscove's Modified Dulbecco's Medium (IMDM, Gibco) supplemented with 5% FBS and 1% antibiotic-antimycotic solution. Human HEK293 (ATCC CRL-1573) kidney cells and human HeLa (ATCC CCL-2) cervical cancer cells were cultured in DMEM containing 10% FBS, 2 mM glutamine (Lonza, Walkersville, Md.) and 1% antibiotic-antimycotic solution. Human monocytic THP-1 cells (TIB-202, ATCC) were cultured in RRMI-1640 medium (Gibco) supplemented with 10% FBS, 2 mM glutamine and 1% antibiotic-antimycotic solution. All cell lines were cultured in a humidified 5% CO2 incubator at 37° C.
(§2) To assess the effect of the synthesized compounds on cell surface sialylation, different murine and human cell lines were cultured for three days in the presence of 0-204.8 μM amide and carbamate fluorine sialic acids. Cells treated with an equal final percentage of DMSO were used as control and all cells were subjected to lectin staining and flow cytometry as described below. To investigate the longevity of the effect of the fluorine sialic acids on cell surface sialylation, B16-F10 cells treated with 25.6 μM or 51.2 μM were thoroughly washed with medium to remove fluorine sialic acids from the culture and reseeded. During a period of six days, cells were harvested every day and sialylation was assessed by flow cytometry.
(§3) For the lectin staining, all cells were harvested and washed with 1× carbo-free blocking solution (Vector Laboratories, Inc., Burlingame, Calif., USA) and stained for 45 minutes at 4° C. in 1× carbo-free blocking solution containing 1 mM CaCl2), 1 mM MgCl2 and biotinylated MALII (5 μg/ml), SNA-1 (1 μg/ml) or PNA (5 μg/ml) all obtained from Vector Laboratories Inc. MALII recognizes α2,3-linked sialic acids, SNA-1 recognizes α2,6-linked sialic acids and PNA binds to terminal 3-galactose. In addition, B16-F10 cells were stained with 2 μg/ml biotinylated AAL (α-linked Fucose), LCA (α-linked Mannose), PHA-L (complex glycans), GSL-I (α-linked Galactose and N-Acetylgalactosamine), WGA (chitobiose), SJA (β-linked Galactose and N-Acetylgalactosamine) and PSA (Glucose and Mannose) purchased from Vector Laboratories Inc. Next, the cells were washed thrice in PBA (1×PBS, 1% BSA, and 0.02% sodium azide) and stained for 10 minutes at 4° C. with 2 μg/ml streptavidin-phycoerythrin (PE) (BD Pharmingen, Franklin Lakes, N.J., USA). The cells were washed thrice again with PBA and fluorescence was assessed using a CyAn ADP flow cytometer (BD Biosciences, San Jose, Calif.) followed by analysis with FlowJo software (Tree Star Inc., Ashland, Oreg.). Untreated cells stained with streptavidin-PE only served as background fluorescence control. The percentages lectin binding was calculated by normalizing the mean fluorescence intensity values from the treated cells with the DMSO controls.
(§4) IC50 values and statistics were calculated using Prism 5.03 (GraphPad Software, Inc., La Jolla, Calif.). Statistical significance between the different groups was calculated using one-way ANOVA followed by Bonferroni post-hoc testing and P-values<0.05 were considered significant (p<0.05 *, p<0.01 **, p<0.001 ***). […]

THP-1 cells = test: Inhibition of cell surface sialylation, lectin staining and flow cytometry, THP-1 cells; assay type: cell-based, Human; settings: three days
Experimental: as §1, §2, §3, §4

HEK293 cells = test: Inhibition of cell surface sialylation, lectin staining and flow cytometry, HEK293 cells; assay type: cell-based, Human; settings: three days
Experimental: as §1, §2, §3, §4

HeLa cells = test: Inhibition of cell surface sialylation, lectin staining and flow cytometry, HeLa cells; assay type: cell-based, human; settings: three days
Experimental: as §1, §2, §3, §4

9464D cells = test: Inhibition of cell surface sialylation, lectin staining and flow cytometry, 9464D cells; assay type: cell-based, murine; settings: three days
Experimental: as §1, §2, §3, §4

EL4 cells = test: Inhibition of cell surface sialylation, lectin staining and flow cytometry, EL4 cells; assay type: cell-based, murine; settings: three days
Experimental: as §1, §2, §3, §4

B16-F10 cells [2] = test: Inhibition of cell surface sialylation by urea, thiocarbamate and sulphonamide analogues (Example 5); assay type: cell-based, Mouse; settings: for IC50: three days, 0.1-204.8 μM
Experimental: as §1, §3
IC50 values and statistics were calculated using Prism 5.03 (GraphPad Software, Inc., La Jolla, Calif.). Statistical significance between the different groups was calculated using one-way ANOVA followed by Bonferroni post-hoc testing and P-values<0.05 were considered significant (p<0.05 *, p<0.01 **, p<0.001 ***).
Analogous to example 3, the inhibitory potency of thiocarbamate 28, urea 29, and sulphonamides 30 and 31 on the sialic acid biosynthesis was assayed. To this end, B16-F10 cells were fed sialic acid precursors for three day at various concentrations (0.1-204.8 μM). The decrease in cell surface sialylation was measured using biotinylated lectins that are specific for binding α2,3-linked (MALII) or α2,6-linked (SNA-1) sialic acid residues, subsequently visualized using streptavidin-phycoerythrin. Conversely, binding of the underlying galactose residue uncovered by desialylation was measured using a galactose specific lectin (Peanut, Agglutinin Lectin, PNA). No inhibition was observed without a P-3Fax-Neu derivative present (DMSO vehicle control). […]

[3] = Mus musculus, 72 h, MALII lectin binding, read-out: α2,3-Sia IC50
[4] = Mus musculus, 72 h, SNA-I lectin binding, read-out: α2,6-Sia IC50
[5] = Homo sapiens, 72 h, MALII lectin binding, read-out: α2,3-Sia IC50
[6] = Homo sapiens, 72 h, SNA-I lectin binding, read-out: α2,6-Sia IC50
[7] = Example 5, read-out: α2,3-Sia IC50 (MAL)
[8] = Example 5, read-out: α2,6-Sia IC50 (SNA)
[9] = MALII lectin binding, read-out: α2,3-Sia IC50
[10] = SNA-I lectin binding, read-out: α2,6-Sia IC50

IC50 (B16-F10 cells [1]; [3]) [µM] | IC50 (B16-F10 cells [1]; [4]) [µM] | IC50 (THP-1 cells; [5]) [µM] | IC50 (THP-1 cells; [6]) [µM] | IC50 (HeLa cells; [5]) [µM] | IC50 (HeLa cells; [6]) [µM] | IC50 (9464D cells; [3]) [µM] | IC50 (9464D cells; [4]) [µM] | IC50 (EL4 cells; [3]) [µM] | IC50 (EL4 cells; [4]) [µM] | Compound | IC50 (HEK293 cells; [5]) [µM] | IC50 (HEK293 cells; [6]) [µM] | IC50 (B16-F10 cells [2]; [7]) [µM] | IC50 (B16-F10 cells [2]; [8]) [µM] | further results
1.78 ± 0.16 | 3.87 ± 1.14 | 0.45 ± 0.74 | 0.37 | 2.02 ± 1.52 | 1.67 ± 1.31 | 8.91 ± 2.38 | 28.1 ± 5.51 | 42 ± 11 | 50.6 ± 8.84 | CCOC(=O)N[C@@H]1C(OC(C)=O)C(F)C(OC(C)=O)(C(=O)OC)OC1[C@H](OC(C)=O)[C@@H](COC(C)=O)OC(C)=O (stereo partly drawn) [SiaFEt, Methyl 5-(ethylcarbamado)-2,4,7,8,9-penta-O-acetyl-3,5-dideoxy-3-fluoro-D-glycero-β-galacto-non-2-ulopyranosonate] | 2.02 ± 2.72 | 1.57 ± 4.23 |  |  | IC50 (B16-F10 cells [2]; Mus musculus, 72 h, Example 5, read-out: α2,3-Sia IC50 (MAL)): 0.929 µM; IC50 (B16-F10 cells [2]; Mus musculus, 72 h, Example 5, read-out: α2,6-Sia IC50 (SNA)): 3.92 µM
1.39 ± 0.21 | 2.87 ± 0.8 | 0.41 ± 0.73 | 0.38 | 1.77 ± 1.78 | 2.04 ± 1.4 | 6.91 ± 3.56 | 9.64 ± 3.93 | 39.9 ± 4.95 | 50.9 ± 6.44 | C=CCOC(=O)N[C@@H]1C(OC(C)=O)C(F)C(OC(C)=O)(C(=O)OC)OC1[C@H](OC(C)=O)[C@@H](COC(C)=O)OC(C)=O (stereo partly drawn) [SiaFAII, 5-(alloxycarbamado)-2,4,7,8,9-penta-O-acetyl-3,5-dideoxy-3-fluoro-D-glycero-β-galacto-non-2-ulopyranosonate] | 1.83 ± 1.19 | 1.68 ± 3.2 |  |  | 

Further lines, the compound ahead of its results:

Compound | IC50 (B16-F10 cells [1]; [3]) [µM] | IC50 (B16-F10 cells [1]; [4]) [µM] | IC50 (THP-1 cells; [5]) [µM] | IC50 (THP-1 cells; [6]) [µM] | IC50 (HeLa cells; [5]) [µM] | IC50 (HeLa cells; [6]) [µM] | IC50 (9464D cells; [3]) [µM] | IC50 (9464D cells; [4]) [µM] | IC50 (EL4 cells; [3]) [µM] | IC50 (EL4 cells; [4]) [µM] | IC50 (HEK293 cells; [5]) [µM] | IC50 (HEK293 cells; [6]) [µM] | IC50 (B16-F10 cells [2]; [7]) [µM] | IC50 (B16-F10 cells [2]; [8]) [µM] | further results
Methyl 5-(methylsulfonamido)-2,4,7,8,9-penta-O-acetyl-3,5-dideoxy-3-fluoro-D-glycero-β-galacto-non-2-ulopyranosonate [Sulphonamide 30] |  |  |  |  |  |  |  |  |  |  |  |  | 9.9 |  | inhibition of sialylation compared with the acetate (B16-F10 cells [2]; FIG. 8): outperforming the acetate at various concentrations
Methyl 5-N-ethylamidnocarbonyl)-2,4,7,8,9-penta-O-acetyl-3,5-dideoxy-3-fluoro-D-glycero-β-galacto-non-2-ulopyranosonate [Urea 29] |  |  |  |  |  |  |  |  |  |  |  |  | 4.2 | 4.89 | 
Methyl 5-(S-ethylthiocarbamado)-2,4,7,8,9-penta-O-acetyl-3,5-dideoxy-3-fluoro-D-glycero-β-galacto-non-2-ulopyranosonate [Thiocarbamate 28] |  |  |  |  |  |  |  |  |  |  |  |  | 1.68 | 4.83 | 
COC(=O)C1(OC(C)=O)O[C@@H]([C@H](OC(C)=O)[C@@H](COC(C)=O)OC(C)=O)[C@H](NC(C)=O)[C@@H](OC(C)=O)[C@H]1F (stereo partly drawn) [SiaFAc, Methyl 5-(acetamido)-2,4,7,8,9-penta-O-acetyl-3,5-dideoxy-3-fluoro-D-glycero-β-galacto-non-2-ulopyranosonate, reference compound] |  |  |  |  |  |  |  |  |  |  |  |  |  | 20.9 | IC50 (B16-F10 cells [1]; [9]): 26.8 ± 5.72 µM; IC50 (B16-F10 cells [1]; [10]): 32.8 ± 3.08 µM; IC50 (THP-1 cells; [9]): 8.5 ± 1.54 µM; IC50 (THP-1 cells; [10]): 10.9 ± 2.47 µM; IC50 (HEK293 cells; [9]): 45.2 ± 8.3 µM; IC50 (HEK293 cells; [10]): 36.7 ± 3.59 µM; IC50 (HeLa cells; [9]): 53 ± 3.61 µM; IC50 (HeLa cells; [10]): 34.5 ± 2.18 µM; IC50 (9464D cells; [9]): > 102 µM; IC50 (9464D cells; [10]): > 102 µM; IC50 (EL4 cells; [9]): > 102 µM; IC50 (EL4 cells; [10]): > 102 µM
